Test results reported in paper PMC5766975, “Production of eicosapentaenoic acid by application of a delta-6 desaturase with the highest ALA catalytic activity in algae” (Microbial Cell Factories, 2018).
Like-named read-outs stand apart in the source and are kept apart here.

How the values were obtained:
TpFADS6 [1] = target: T1, TpFADS6 (Thalassiosira pseudonana, UniProt Q4G2T1); assay: fatty acid composition of substrate-fed yeast transformants by GC (conversion to GLA); type: cell-based; parameters: gene desI; full-length, synthetic codon-optimised gene, 1455-bp fragment; expressed from pYES2/NT C (vector-encoded tag) in Saccharomyces cerevisiae INVSc1; settings: single substrate fed to Saccharomyces cerevisiae INVSc1 expressing the desaturase; delta-6 desaturation; free acid fed
TpFADS6 [2] = target: T1, TpFADS6; parameters: gene desI; settings: single substrate fed to Saccharomyces cerevisiae INVSc1 expressing the desaturase; delta-6 desaturation; free acid fed

T1 sequence (Q4G2T1 entry or part of it): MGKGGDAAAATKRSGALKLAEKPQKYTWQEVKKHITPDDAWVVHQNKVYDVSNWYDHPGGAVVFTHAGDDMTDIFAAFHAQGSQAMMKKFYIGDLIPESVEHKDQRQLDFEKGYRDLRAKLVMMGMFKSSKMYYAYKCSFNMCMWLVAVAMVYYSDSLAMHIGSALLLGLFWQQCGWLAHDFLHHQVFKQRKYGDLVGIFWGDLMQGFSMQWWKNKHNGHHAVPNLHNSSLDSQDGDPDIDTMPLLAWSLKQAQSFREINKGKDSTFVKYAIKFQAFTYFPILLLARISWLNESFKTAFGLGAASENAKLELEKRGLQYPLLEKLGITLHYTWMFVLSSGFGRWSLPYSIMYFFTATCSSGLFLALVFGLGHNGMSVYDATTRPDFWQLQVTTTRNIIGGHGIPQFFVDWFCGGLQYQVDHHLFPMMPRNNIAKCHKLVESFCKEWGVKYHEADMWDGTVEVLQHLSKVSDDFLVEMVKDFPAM

Row | Compound | fatty acid composition of substrate-fed yeast transformants by GC (conversion to) (TpFADS6 [1]) | fatty acid composition of substrate-fed yeast transformants by GC (conversion to) (TpFADS6 [2])
1 | CCCCC/C=C\C/C=C\CCCCCCCC(=O)O [LA, linoleic acid] | both substrates were catalyzed by TpFADS6 | –
2 | CC/C=C\C/C=C\C/C=C\CCCCCCCC(=O)O [ALA, α-linolenic acid] | – | both substrates were catalyzed by TpFADS6
